Test results taken from US5952308A, “Mineral absorption promoting agent” (Pola Chemical Industries Inc., priority 1991, dated 1999).

Key:
hemoglobin = assay: Mineral absorption promoting effect test on animals (hemoglobin increase, iron utilization); assay type: in vivo, Wistar male rats
Protocol: Wistar male rats (body weight:80 g) were feeded for 3 weeks, giving iron-free feed, ferrous sulfate-added feed (iron: 12 ppm), or ferrous sulfate and oligogalacturonic acid-added feed (iron: 12 ppm, powder oligogalacturonic acid obtained in the preparation method 1=0.5%).
During the period, hemoglobin concentration in blood was measured every 7 days, and utilization ratios of iron in each of these feeds were compared, using hemoglobin increase (hemoglobin concentration in blood×blood volume) as an index.
Net increase of hemoglobin (number of tested rats = 10); unit: […]

Wistar rat = assay: Acute toxicity test of oligogalacturonic acid; conditions: in vivo, po
Protocol: Acute toxicity test of oligogalacturonic acid
Animal: Wistar rat: One group comprising
10 each of male and female rats
Specimen: 50% oligogalacturonic acid aqueous
Oral forced administration
Dosage: Group 1 10 ml/kg

Substance | Net increase of hemoglobin, 7th day (hemoglobin; 7th day, feed with iron 12 ppm, n = 10 rats, ± SD) | Net increase of hemoglobin, 14th day (hemoglobin; 14th day, feed with iron 12 ppm, n = 10 rats, ± SD) | Net increase of hemoglobin, 21st day (hemoglobin; 21st day, feed with iron 12 ppm, n = 10 rats, ± SD) | Net increase of hemoglobin, at start (hemoglobin; at start, feed with iron 12 ppm, n = 10 rats, ± SD) | Utilization ratio (hemoglobin; iron in feed, 3 weeks, index hemoglobin increase (hemoglobin concentration in blood×blood volume)) | autopsy after 14 days (Wistar rat)
ferrous sulfate | 0.2 ± 0.1 g | 0.3 ± 0.1 g | 0.4 ± 0.2 g | 0 g | 33% | 
oligogalacturonic acid |  |  |  |  |  | no abnormal sign
